Assay results published in patent publication US20060166941A1, “Treatment and/or prevention of non-viral epithelial damage” (Epistem Limited, priority 2003, published 2006).
Values joined by “and” are separate entries in the source; they are usually repeats but may differ in a detail not shown here. Equal entries are not always repeated. Structures can show the parent of a compound that is named as a salt.

Tests used:
digestive epithelia = assay: Diarrhoea prevention assay, 14 Gy X-ray partial body radiation; type: in vivo, mice; details: for incidence of diarrhoea (perianal soilage): 5 mice
Text: Diarrhoea Prevention Assay The ability of foscarnet (phosphonoformic acid trisodium salt hexahydrate) to prevent diarrhoea following radiological injury to digestive epithelia was investigated. The model of radiological insult used was treatment with 14 Gy X-ray partial body radiation (head and thorax lead shielded) at a dose rate of 0.7 Gy/minute. Such radiation treatment provides a model of radiotherapy administered to patients undergoing treatment for cancer. Three experimental groups, each of five mice, were established as set out below: Group 1: Received intra-peritoneal injection, containing 50 mg foscarnet/kilogram bodyweight, in sterile water, one hour prior to radiation treatment. Received one further identical injection on each of the next five days following radiation treatment. Group 2: Received intra-peritoneal injection, containing 100 mg foscarnet/kilogram bodyweight, in sterile water, one hour prior to radiation treatment. Received one further identical injection on each of the next five days following radiation treatment. Group 3: Vehicle control. […] Received intra-peritoneal injection, of sterile water, one hour prior to radiation treatment. Received one further identical injection on each of the next five days following radiation treatment. The incidences of both diarrhoea (measured by assessing perianal soilage twice daily) and morbidity among experimental animals were measured over the course of the seven days following radiation treatment.

[1] = tested on: clonogenic stem cells of the digestive epithelium; assay: In vivo protection of intestinal epithelium clonogenic stem cells, chemotherapy drug damage, independent experiment 2; set-up: species or system mice
Method: In Vivo Protection of Intestinal Epithelium Clonogenic Stem Cells—Chemotherapy Drug Damage—Independent Experiment 2.
The data presented in Example 4 were expanded in the following study, in which the ability of foscarnet (phosphonoformic acid trisodium salt hexahydrate) to prevent cytotoxic damage to clonogenic stem cells of the digestive epithelium was investigated using the following experiment.
The model of cytotoxic insult used was treatment with 2 doses of 5-Flurouracil 6 hours apart at 400 mg of 5-Fluorouracil/kilogram bodyweight. Such cytotoxic treatment provides a model of chemotherapy administered to patients undergoing treatment for cancer.
8 experimental groups, each of six mice, were established as set out below:
Group 1: Received intra-peritoneal injection, containing 50 mg foscarnet/kilogram bodyweight, in sterile water, one hour prior to the first cytotoxic treatment. Received one further identical injection on each of the three days following cytotoxic treatment.
Group 2: Received intra-peritoneal injection, containing 50 mg foscarnet/kilogram bodyweight, in sterile water, one hour prior to the first cytotoxic treatment.
Group 3: Received intra-peritoneal injection, containing 50 mg foscarnet/kilogram bodyweight, in sterile water on each of the three days following cytotoxic treatment.
Group 4: Received intra-peritoneal injection, containing 50 mg foscarnet/kilogram bodyweight, in sterile water, 5 minutes prior to the first cytotoxic treatment. Received one further identical injection on each of the three days following cytotoxic treatment.
Group 5: Vehicle control. Received intra-peritoneal injection, of sterile water, one hour prior to the first cytotoxic treatment. Received one further identical injection on each of the days following cytotoxic treatment.
Group 6: Vehicle control. Received intra-peritoneal injection, of sterile water, one hour prior to the first cytotoxic treatment.
Group 7: Vehicle control. Received intra-peritoneal injection, of sterile water, on each of the three days following cytotoxic treatment.
Group 8: Vehicle control. Received intra-peritoneal injection, of sterile water, 5 minutes prior to the first cytotoxic treatment. Received one further identical injection on each of the three days following cytotoxic treatment.
On the fourth day after treatment the animals of each group were killed, and intestinal tissue harvested for histological analysis. Tissue sections were stained with haemotoxylin and eosin, and were analysed for the presence of regenerating intestinal crypts. Regenerating intestinal crypts are derived from one or more surviving clonogenic stem cells, whereas sterilised crypts (containing no surviving stem cells) disappear within two days of irradiation. The number of regenerating crypts per intestinal circumference was counted, and the mean crypt width measured. Scores for each animal were then corrected to account for the probability of preferentially scoring larger crypts according to the following equation: [formula]
For each treatment a Protection Factor was calculated using the following equation: corrected crypts/circumference treated corrected crypts/circumference untreated (vehicle)

[2] = 400 mg/kg 5FU x 2 6 hours apart plus 50 mg foscarnet/kg -5 minutes, D1, D2, D3, group Ave
[3] = 400 mg/kg 5FU x 2 6 hours apart plus 50 mg foscarnet/kg -5 minutes, D1, D2, D3, individual mice
[4] = 400 mg/kg 5FU x 2 6 hours apart plus 50 mg foscarnet/kg -1 hr only, group Ave
[5] = 400 mg/kg 5FU x 2 6 hours apart plus 50 mg foscarnet/kg -1 hr only, individual mice
[6] = 400 mg/kg 5FU x 2 6 hours apart plus 50 mg foscarnet/kg -1 hr, D1, D2, D3, group Ave
[7] = 400 mg/kg 5FU x 2 6 hours apart plus 50 mg foscarnet/kg -1 hr, D1, D2, D3, individual mice
[8] = 400 mg/kg 5FU x 2 6 hours apart plus 50 mg foscarnet/kg D1, D2, D3, group Ave
[9] = 400 mg/kg 5FU x 2 6 hours apart plus 50 mg foscarnet/kg D1, D2, D3, individual mice
[10] = group 1: 50 mg/kg foscarnet 1 hr prior to first 5-Flurouracil dose (400 mg/kg x 2) and 3 days after

O=C(O)P(=O)(O)O [foscarnet, phosphonoformic acid trisodium salt hexahydrate]
protection against the deleterious effects of radiation treatment (digestive epithelia; 50 mg per kilogram bodyweight, 14 Gy partial body): protects completely | incidence of diarrhoea (perianal soilage) (digestive epithelia; 50 mg/kg intra-peritoneal 1 hr before 14 Gy and daily for 5 days, Day 3): No | incidence of diarrhoea (perianal soilage) (digestive epithelia; 50 mg/kg intra-peritoneal 1 hr before 14 Gy and daily for 5 days, Day 4): No diarrhoea | incidence of diarrhoea (perianal soilage) (digestive epithelia; 50 mg/kg intra-peritoneal 1 hr before 14 Gy and daily for 5 days, Day 5): No diarrhoea | incidence of diarrhoea (perianal soilage) (digestive epithelia; 50 mg/kg intra-peritoneal 1 hr before 14 Gy and daily for 5 days, Day 6): No diarrhoea | incidence of diarrhoea (perianal soilage) (digestive epithelia; 50 mg/kg intra-peritoneal 1 hr before 14 Gy and daily for 5 days, Day 7): No diarrhoea | incidence of diarrhoea or associated morbidity compared to vehicle controls (digestive epithelia; 100 mg per kilogram bodyweight, 14 Gy partial body): reduced incidence of diarrhoea or associated morbidity | incidence of diarrhoea (perianal soilage) (digestive epithelia; 100 mg/kg intra-peritoneal 1 hr before 14 Gy and daily for 5 days, Day 3): No | incidence of diarrhoea (perianal soilage) (digestive epithelia; 100 mg/kg intra-peritoneal 1 hr before 14 Gy and daily for 5 days, Day 4): No diarrhoea | incidence of diarrhoea (perianal soilage) (digestive epithelia; 100 mg/kg intra-peritoneal 1 hr before 14 Gy and daily for 5 days, Day 5): No diarrhoea | incidence of diarrhoea (perianal soilage) (digestive epithelia; 100 mg/kg intra-peritoneal 1 hr before 14 Gy and daily for 5 days, Day 6): 2 mice had | incidence of diarrhoea (perianal soilage) (digestive epithelia; 100 mg/kg intra-peritoneal 1 hr before 14 Gy and daily for 5 days, Day 7): 1 mouse had diarrhoea | Protection Factor ([1]; 50 mg foscarnet/kg 5 minutes prior to 1st dose of 5-Flurouracil (400 mg/kg x 2 6 hrs apart) and D1, D2 & D3): 1.11 | Protection Factor ([1]; 50 mg foscarnet/kg 1 hr prior to 1st dose of 5-Flurouracil (400 mg/kg x 2 6 hrs apart)): 1.12 | Protection Factor ([1]; 50 mg foscarnet/kg 1 hr prior to 1st dose of 5-Flurouracil (400 mg/kg x 2 6 hrs apart) and D1, D2 & D3): 1.62 | Protection Factor ([1]; 50 mg foscarnet/kg D1, D2, D3 following 5-Flurouracil (400 mg/kg x 2 6 hrs apart)): 1.13 | corrected crypts/circumference [1, 2]: 25.12 | no. crypts/circumference [1, 2]: 26.97 | corrected crypts/circumference [1, 3]: 13.01 and 39.74 and 38.64 and 15.78 and 24.39 and 19.14 | no. crypts/circumference [1, 3]: 13.20 and 46.50 and 40.10 and 16.30 and 24.30 and 21.40 | corrected crypts/circumference [1, 4]: 22.70 | no. crypts/circumference [1, 4]: 24.62 | corrected crypts/circumference [1, 5]: 35.09 and 16.52 and 22.90 and 30.41 and 11.28 and 20.01 | no. crypts/circumference [1, 5]: 42.50 and 16.20 and 24.70 and 32.80 and 11.70 and 19.80 | corrected crypts/circumference [1, 6]: 29.76 | no. crypts/circumference [1, 6]: 31.28 | corrected crypts/circumference [1, 7]: 42.10 and 17.28 and 33.67 and 29.92 and 31.88 and 23.71 | no. crypts/circumference [1, 7]: 44.90 and 16.00 and 35.70 and 32.50 and 34.30 and 24.30 | corrected crypts/circumference [1, 8]: 19.78 | no. crypts/circumference [1, 8]: 19.58 | corrected crypts/circumference [1, 9]: 13.74 and 9.34 and 35.87 and 23.12 and 21.45 and 15.14 | no. crypts/circumference [1, 9]: 14.10 and 8.50 and 35.50 and 24.10 and 19.20 and 16.10 | numbers of intestinal crypts after exposure to 5-Flurouracil ([1]; Groups 1, 2, 3 and 4 (50 mg foscarnet/kg regimens)): increased numbers of intestinal crypts | more crypts compared to mice treated with vehicle alone [1, 10]: ~50% | more small intestinal clonogenic stem cells survived [1, 10]: at least 50%
